# Assay results as given in ChEMBL document CHEMBL1208782, “Synthesis and pharmacological validation of a novel series of non-steroidal FXR agonists” (Bioorg Med Chem Lett, 2010).
# Assays:
# Assay type in all cases: functional, cell-based
# Glucocorticoid receptor = biological target: T1, Glucocorticoid receptor (Homo sapiens, UniProt P04150); assay: Agonist activity at GR-LBD expressed in HEK293 cells assessed as Gal4-DBD interaction by cellular mammalian one hybrid assay
# T1 sequence (P04150 whole entry): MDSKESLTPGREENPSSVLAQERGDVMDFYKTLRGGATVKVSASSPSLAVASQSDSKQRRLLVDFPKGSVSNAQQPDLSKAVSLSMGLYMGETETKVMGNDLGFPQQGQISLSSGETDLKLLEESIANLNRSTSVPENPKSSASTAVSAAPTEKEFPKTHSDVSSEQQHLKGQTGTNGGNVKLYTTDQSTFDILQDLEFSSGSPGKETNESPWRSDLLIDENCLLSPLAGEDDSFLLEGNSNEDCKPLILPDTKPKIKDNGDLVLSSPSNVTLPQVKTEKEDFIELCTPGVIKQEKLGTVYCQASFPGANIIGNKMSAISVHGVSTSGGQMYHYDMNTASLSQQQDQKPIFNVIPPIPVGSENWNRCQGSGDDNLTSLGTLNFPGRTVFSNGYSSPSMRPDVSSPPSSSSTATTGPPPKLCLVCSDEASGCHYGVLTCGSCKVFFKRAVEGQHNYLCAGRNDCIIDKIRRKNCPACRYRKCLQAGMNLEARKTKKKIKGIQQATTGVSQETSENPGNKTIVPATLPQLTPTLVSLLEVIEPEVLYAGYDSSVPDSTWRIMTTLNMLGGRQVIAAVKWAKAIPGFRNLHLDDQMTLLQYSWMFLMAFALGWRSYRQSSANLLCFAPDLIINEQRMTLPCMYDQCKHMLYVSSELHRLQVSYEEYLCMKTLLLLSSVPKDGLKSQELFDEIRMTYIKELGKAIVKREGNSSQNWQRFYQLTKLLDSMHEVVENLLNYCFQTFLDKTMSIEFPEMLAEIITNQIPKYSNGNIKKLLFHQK
# [1] = biological target: T2, Retinoic acid receptor RXR-alpha (Homo sapiens, UniProt P19793); assay: Agonist activity at RXRalpha-LBD expressed in HEK293 cells assessed as Gal4-DBD interaction by cellular mammalian one hybrid assay
# T2 sequence (P19793 whole entry): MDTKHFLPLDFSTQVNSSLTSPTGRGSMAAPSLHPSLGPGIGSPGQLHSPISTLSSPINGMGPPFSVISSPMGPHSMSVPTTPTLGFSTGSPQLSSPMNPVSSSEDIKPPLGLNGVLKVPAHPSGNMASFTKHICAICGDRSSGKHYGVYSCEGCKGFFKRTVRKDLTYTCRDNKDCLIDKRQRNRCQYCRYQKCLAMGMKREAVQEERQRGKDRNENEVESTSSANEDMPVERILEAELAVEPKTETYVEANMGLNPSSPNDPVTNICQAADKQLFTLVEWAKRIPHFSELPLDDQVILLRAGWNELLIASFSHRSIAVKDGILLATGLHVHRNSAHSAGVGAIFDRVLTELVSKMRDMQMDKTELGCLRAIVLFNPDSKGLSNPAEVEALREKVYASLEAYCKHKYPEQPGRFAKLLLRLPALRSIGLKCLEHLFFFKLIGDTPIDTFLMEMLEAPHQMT
# [2] = biological target: T3, Retinoic acid receptor beta (Homo sapiens) (UniProt P10826); assay: Agonist activity at RARbeta-LBD expressed in HEK293 cells assessed as Gal4-DBD interaction by cellular mammalian one hybrid assay relative to retinoic acid
# T3 sequence (whole entry): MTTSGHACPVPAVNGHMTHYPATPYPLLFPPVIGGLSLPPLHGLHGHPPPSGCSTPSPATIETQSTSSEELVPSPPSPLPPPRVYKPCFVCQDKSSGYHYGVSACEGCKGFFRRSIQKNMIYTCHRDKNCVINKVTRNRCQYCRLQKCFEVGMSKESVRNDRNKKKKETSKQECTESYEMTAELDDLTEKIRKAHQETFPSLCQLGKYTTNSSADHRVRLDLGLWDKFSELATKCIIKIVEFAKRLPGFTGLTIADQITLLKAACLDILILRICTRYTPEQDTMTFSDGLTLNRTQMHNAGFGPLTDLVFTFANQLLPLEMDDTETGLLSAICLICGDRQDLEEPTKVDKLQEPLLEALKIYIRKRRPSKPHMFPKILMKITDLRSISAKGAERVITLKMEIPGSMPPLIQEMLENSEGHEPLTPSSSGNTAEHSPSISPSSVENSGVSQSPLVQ
# [3] = biological target: T4, Thyroid hormone receptor alpha (Homo sapiens, UniProt P10827); assay: Agonist activity at TRalpha-LBD expressed in HEK293 cells assessed as Gal4-DBD interaction by cellular mammalian one hybrid assay
# T4 sequence (P10827 whole entry): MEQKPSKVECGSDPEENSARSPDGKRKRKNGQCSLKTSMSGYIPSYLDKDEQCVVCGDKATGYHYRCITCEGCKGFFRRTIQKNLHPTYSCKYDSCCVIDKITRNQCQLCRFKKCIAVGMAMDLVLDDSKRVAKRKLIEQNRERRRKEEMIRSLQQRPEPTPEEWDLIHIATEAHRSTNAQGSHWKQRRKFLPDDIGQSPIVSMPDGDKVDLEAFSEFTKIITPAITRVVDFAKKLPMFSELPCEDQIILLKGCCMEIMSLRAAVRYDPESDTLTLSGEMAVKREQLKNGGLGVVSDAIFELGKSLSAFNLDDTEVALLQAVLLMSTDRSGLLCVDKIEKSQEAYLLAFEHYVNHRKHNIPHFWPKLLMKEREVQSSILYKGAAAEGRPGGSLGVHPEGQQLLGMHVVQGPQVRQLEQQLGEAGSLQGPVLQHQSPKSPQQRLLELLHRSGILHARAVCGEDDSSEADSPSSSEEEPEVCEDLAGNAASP
# [4] = biological target: T5, Thyroid hormone receptor alpha (Homo sapiens) (UniProt P10827); assay: Agonist activity at TRalpha-LBD expressed in HEK293 cells assessed as Gal4-DBD interaction by cellular mammalian one hybrid assay relative to thyroid
# T5 sequence (whole entry): T4 sequence (P10827 whole entry)
EC50 (Glucocorticoid receptor) [µM],EC50 [1] [µM],Efficacy [2] [%],EC50 [3] [µM],Efficacy [4] [%],SMILES
> 10,> 10,0,> 10,0,CN(Cc1cccc(C(=O)O)c1)c1ccc(OCc2c(-c3c(Cl)cccc3Cl)noc2C2CC2)nc1C(F)(F)F
> 10,> 10,0,> 10,0,CN(Cc1ccc(C(=O)O)cc1)c1ccc(OCc2c(-c3c(Cl)cccc3Cl)noc2C2CC2)nc1C(F)(F)F
> 10,> 10,0,> 10,0,CC(C)c1onc(-c2c(Cl)cccc2Cl)c1COc1ccc(N(C)Cc2ccc(C(=O)O)cc2)c(C(F)(F)F)n1
